Assay results as given in US10676492B2, “Branched amphiphilic lipids” (UNIVERSITÉ DE BRETAGNE OCCIDENTALE, priority 2015, dated 2020).

Legend:
[1] = Measurement of the size and zeta potential of liposomes (Zetasizer Nano ZS); type: physicochemical; conditions: liposomal solution in water, 25° C.
Procedure: The cationic lipids were formulated in a liposomal solution by the method of hydration of a lipid film. Initially, a fraction of a concentrated solution of the cationic lipid is placed in a glass tube and evaporated to give a thin lipid film. 1 mL of water is then added to the film and the film is hydrated for 3 days at 4° C. The solution is then vortexed (1 min) and placed under ultrasound (30 to 60 min) at 45 kHz. Then 150 μL of the liposomal solution is diluted in 1.5 mL of sterile water. After filtration ([…]) of the liposomal solution, the size and the zeta potential of liposomes and lipoplexes are determined.
The size and zeta potential (ξ) of the liposomes and of the lipoplexes were measured with a Zetasizer Nano ZS (Malvern Instruments) at 25° C. after a suitable dilution of the formulations. For the measurements of the lipoplexes, each test used […] of plasmid DNA in water with the required amount of cationic lipid studied in order to form lipoplexes with charge ratios ranging from 0.5 to 8.0. For the measurements of the liposomes, a quantity of lipid equivalent to a mixture having a 1.0 charge ratio in water was used.

[2] = Structural organisation study via 31P NMR (Hahn echo) of hydrated lipids; type: physicochemical; conditions: hydrated medium, ambient temperature
Procedure: A stock solution of a cationic lipid is prepared in the chloroform. A volume of stock solution corresponding to a weight in lipids between 50 mg and 100 mg is pipette into a haemolysis tube and the chloroform is evaporated under of flow of N2 in such a way as to obtain a lipid film. 500 μL of water is then added and the mixture is subjected to ultrasound until complete dispersion of the lipid film. The mixture is lysed for one night. A volume of distilled water is then added in order to obtain a solution with a concentration of 100 mg·mL^−1. In order to ensure the balance of the sample, three cycles −198° C./50° C. are carried out: the sample is placed at −198° C. (liquid nitrogen) for 5 min, then the sample is placed in a water bath at 50° C. for 30 min and is vortexed.
The NMR ^31P spectra were acquired with a Hahn echo sequence (90°-τ-180°-τ-acq). The acquisition parameters were as follows: spectral window of 200 KHz, a pulse π/2 with a duration of […], a recycling period of 5 s and an echo period of 40 μs. The number of acquisitions depends on the volume of the sample and the acquisition temperature, and is between 128 and 1700 scans. The temperature of the sample is balanced for 30 min before the start of the acquisition. Lorentzian noise is filtered over the entire spectral window before the Fourier transform on the top of the echo. […]

PdI [1]: 0.26
Size (nm) [1]: 94 nm
Zeta Potential (mV) [1]: +54 mV
structure of the supramolecular aggregates (self-organisation) [2]: lamellar form
Compound: CCCCCCCC/C=C/CCCCCCCCOP(=O)(NCC[N+](C)(C)C)OCCCCCCCC/C=C/CCCCCCCC.[I-] [Compound I-1]
